The assay deals with T1, G1 APOL1 (Homo sapiens, UniProt O14791, I384M/S342G).
T1 construct: expressed in transfected cells
T1 sequence (O14791 28-398 S342G/I384M): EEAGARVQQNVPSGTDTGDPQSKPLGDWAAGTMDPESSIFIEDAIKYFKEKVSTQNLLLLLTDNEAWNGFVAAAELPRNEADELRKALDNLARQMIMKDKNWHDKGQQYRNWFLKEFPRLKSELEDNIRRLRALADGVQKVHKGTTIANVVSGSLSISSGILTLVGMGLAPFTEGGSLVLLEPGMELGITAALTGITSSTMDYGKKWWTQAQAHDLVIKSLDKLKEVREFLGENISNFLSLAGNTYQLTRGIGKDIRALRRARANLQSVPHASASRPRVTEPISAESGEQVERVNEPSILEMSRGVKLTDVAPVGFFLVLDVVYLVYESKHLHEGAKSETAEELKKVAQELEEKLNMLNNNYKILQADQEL
The assay is described as follows: Acute APOL1 Thallium Assay with inducible stable clones of HEK 293 cells. In kind it is cell-based. Particulars: read-out: Thallium Assay (IC50). A digest of the protocol: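 Readout: Tl+-triggered fluorescence, FLIPR, reflecting potassium flux through APOL1 pores after cells take up an AM-ester thallium indicator. Cells: HEK T-Rex stable clone G1 DC3.25, APOL1 G1 induced by tetracycline, seeded 26000 per well.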

Where [1] appears, read: HEK 293 T-Rex cells expressing G1 APOL1.

The results in this text go back to patent US12116343B2, “Inhibitors of APOL1 and methods of using same” (Vertex Pharmaceuticals Incorporated, priority 2020, dated 2024).

Usually IC50 stands for the concentration needed to halve the response being measured.

The structures appear in SMILES notation. Like-named read-outs stand apart in the source and are kept apart here. Some results are limits rather than exact numbers.

Consider `C[C@H](O)[C@H](CO)NC(=O)[C@H]1C[C@@H](c2c(-c3ccc(F)cc3)[nH]c3c(F)cc(F)cc32)C1` [Compound 245], for which, under setting [1], the IC50 is greater than 1 µM. On to `O=C(NC[C@H]1C[C@H](c2c(-c3ccc(F)cc3)[nH]c3c(F)cc(F)cc32)C1)N[C@@H](CO)C(F)(F)F` [Compound 413], for which, for the setting “Table 24, Compounds 287 to 465”, the IC50 is greater than 1 µM. In the case of `C[C@@H](O)CNC(=O)C1CC(Cc2c(-c3ccc(F)cc3)[nH]c3c(F)cc(F)cc23)C1` (stereo partly shown) [Compound 307], the IC50 (Table 24, Compounds 287 to 465) was greater than 1 µM. Regarding `O=C(CN[C@H]1C[C@H](c2c(-c3ccc(F)cc3)[nH]c3c(F)cc(F)cc32)C1)NC1CC1` [Compound 293], the IC50 (Table 24, Compounds 287 to 465) was greater than 1 µM.

Regarding `O=C(NCC1(O)CC1)NC[C@H]1C[C@H](c2c(-c3ccc(F)cc3)[nH]c3c(F)cc(F)cc32)C1` [Compound 399], where the note is “Table 24, Compounds 287 to 465”, the IC50 is greater than 1 µM. Regarding `Cc1noc(CNC(=O)C2CC(Cc3c(-c4ccc(F)cc4)[nH]c4c(F)cc(F)cc34)C2)n1` (stereo not shown) [Compound 304], under “Table 24, Compounds 287 to 465”, the IC50 was greater than 1 µM. Still for that read-out and setting: the value for `C[C@H](NCC1CC(c2c(-c3ccc(F)cc3)[nH]c3c(F)cc(F)cc23)C1)C(=O)N(C)C` (stereo partly shown) [Compound 434] was 0.25 to 1 µM; that for `O=C(NCC1CCOC1)C1CC(Cc2c(-c3ccc(F)cc3)[nH]c3c(F)cc(F)cc23)C1` (stereo not shown) [Compound 330] was greater than 1 µM.

Turning to `Cn1cnc(CNC(=O)C2(F)CC(c3c(-c4ccc(F)cc4)[nH]c4c(F)cc(F)cc34)C2)c1` (stereo not shown) [Compound 286], the IC50 under setting [1] was less than 0.25 µM. For the compound `O=C(NCCn1cncn1)[C@H]1C[C@@H](c2c(-c3ccc(F)cc3)[nH]c3c(F)cc(F)cc32)C1` [Compound 264], the IC50 under setting [1] was greater than 1 µM.
